Experimental data reported in patent EP3521435A1, “A HIGH STRINGENCY SELECTION SYSTEM FOR PROTEIN EXPRESSION IN PROLINE-AUXOTROPHIC CELLS” (Bayer AG, priority 2018, dated 2019).

Tested on: CHO-K1 cells
Assay: Flow cytometric analysis of GFP expression (MFI, high fluorescing cells) in stably selected cell populations
Format: cell-based, Chinese hamster
Settings: for improvement of MFI as compared to Puromycin selected cultures / increase of the frequency of high fluorescing cells as compared to Puromycin selected cultures: DHP in proline-free medium
Method: To efficiently test the impact of different procedures on improving selection stringency, experimental testing in stable cell populations was performed. As test molecules, enhanced green fluorescent protein (GFP) as well as a human IgG1 were chosen. CHO-K1 cells adapted to growth in suspension in defined medium were obtained from SAFC and cultivated in EX-CELL CD CHO Fusion medium (SAFC 14365C). Custom-made EX-CELL CD CHO Fusion medium without L-Proline (Pro) and without L-Ornithine (Orn) ("proline-free medium") was obtained from SAFC. The expression vector system was based on modified versions of "CET 1019 AS-puro-SceI" and "CET 1019 AD-puro-SceI" for GFP and human IgG1, respectively, from Merck-Millipore, containing the Puromycin selection marker (Puromycin N-acetyl-transferase) known to exert a high selection stringency. To minimize variations in cell populations derived from using different transfections or different vectors, the first series of experiments were conducted using vectors into which a P5CS expression cassette was cloned upstream of a UCOE element, in addition to the Puromycin selection marker present downstream of a gene of interest. This way, it was possible to pool different transfections using the same vector to obtain a common starting point, and split the mixture according to different selection conditions, minimizing any variations that are not due to selection conditions themselves. Expression of long and short isoform of murine P5CS (Protein: Delta-1-pyrroline-5-carboxylate synthase; Gene: Aldh18a1; UniProtKB accession number: Q9Z110-1 & Q9Z110-2) was driven by a SV40 promoter. A SV40 polyadenylation sequence was used at the 3' end of the gene. More details can be found in Table 1. Typically, CHO cells were cultivated in EX-CELL CD CHO Fusion medium containing 6 mM GlutaMAX (Thermo Fisher, 35050-38) ("CD-Fusion medium") at 37 °C with 5% CO2. Cells were grown to logarithmic phase under shaking conditions for transfections. 1e7 cells/cuvette were transfected using nucleofection (Amaxa Nucleofector II, following the manufacturer's recommendations) with 5 µg of linearized DNA. After transfection, cells were taken up in 1 ml medium and transferred into 1 well of a 6 well microtiter plate (MTP) already containing 1 ml medium. The cells were incubated for 24 h without shaking, after which 9 ml medium were added and cells were washed (either in standard or proline-free medium). Multiple transfections were pooled, if applicable. Cells were adjusted to 2e5 viable cells/ml and 10 ml were transferred to T-25 flasks. Reference cell populations were selected using 10 µg/ml Puromycin in CD-Fusion medium. For P5CS-based selection, EX-CELL CD CHO Fusion medium (custom-made, SAFC) containing 6 mM GlutaMAX without proline and without ornithine was used ("proline-free" or "CD-Fusion w/o Pro" medium), with or without additional selection pressure.
Cell viability of the different populations was monitored over time. As soon as cell populations appeared to recover from selection pressure, cells were transferred to Shake Flask or TubeSpins for expansion in suspension under shaking conditions. Subsequently, stable cell populations transfected with IgG were seeded at 2e5 viable cells/ml for batch fermentation without selection pressure (i.e. standard CD-Fusion medium containing proline and no other selective agents). The cells were cultivated for 5-10 days, viable cell densities and productivity were monitored over time. IgG titers were determined using Poros A-HPLC method. Typically, final batch titers were recorded at a time point at which majority of cultures had around 70% viability. Stable cell populations transfected with GFP vector were subjected to analysis by flow cytometry using Guava easyCyte 8HT Benchtop Flow Cytometer (Millipore). 250 µl of cell culture were transferred to 96 MTP and washed with PBS. Dead cells were excluded from analysis using propidium iodide (PI). […]

[1] = Table 11, day 19 post-transfection, pJF1555, CD-Fusion w/o Pro + 0.2 mM DHP
[2] = Table 13, day 19 post-transfection, pJF1555, CD-Fusion w/o Pro + 0.05 mM DHP
[3] = Table 13, day 19 post-transfection, pJF1555, CD-Fusion w/o Pro + 0.1 mM DHP
[4] = Table 13, day 19 post-transfection, pJF1555, CD-Fusion w/o Pro + 0.2 mM DHP
[5] = Table 13, day 19 post-transfection, pJF1555, CD-Fusion w/o Pro + 0.4 mM DHP
[6] = day 22 post-transfection, pJF2055, CD-Fusion w/o Pro + 0.02 mM DHP
[7] = day 22 post-transfection, pJF2055, CD-Fusion w/o Pro + 0.03 mM DHP
[8] = day 22 post-transfection, pJF2055, CD-Fusion w/o Pro + 0.04 mM DHP
[9] = day 22 post-transfection, pJF2055, CD-Fusion w/o Pro + 0.06 mM DHP
[10] = day 22 post-transfection, pJF2055, CD-Fusion w/o Pro + 0.07 mM DHP
[11] = day 22 post-transfection, pJF2055, CD-Fusion w/o Pro + 0.08 mM DHP
[12] = day 22 post-transfection, pJF2303, CD-Fusion w/o Pro + 0.02 mM DHP
[13] = day 22 post-transfection, pJF2303, CD-Fusion w/o Pro + 0.04 mM DHP
[14] = day 22 post-transfection, pJF2303, CD-Fusion w/o Pro + 0.06 mM DHP
[15] = day 22 post-transfection, pJF2303, CD-Fusion w/o Pro + 0.08 mM DHP
[16] = day 22 post-transfection, pJF2303, CD-Fusion w/o Pro + 0.2 mM DHP
[17] = day 22 post-transfection, pJF2303, CD-Fusion w/o Pro + 0.3 mM DHP
[18] = day 22 post-transfection, pJF2303, CD-Fusion w/o Pro + 0.4 mM DHP
[19] = day 22 post-transfection, pJF2303, CD-Fusion w/o Pro + 0.5 mM DHP
[20] = day 29 post-transfection, pJF2460, CD-Fusion w/o Pro + 0.01 mM DHP
[21] = day 29 post-transfection, pJF2460, CD-Fusion w/o Pro + 0.03 mM DHP
[22] = Table 11, day 19 post-transfection, pJF1555, CD-Fusion + 10 µg/ml Puromycin
[23] = Table 11, day 19 post-transfection, pJF1555, CD-Fusion w/o Pro + 0.25mM Pro + 10 µg/ml Puromycin
[24] = Table 13, day 19 post-transfection, pJF1555, CD-Fusion + 10 µg/ml Puromycin
[25] = Table 13, day 19 post-transfection, pJF1555, CD-Fusion w/o Pro + 0.25 mM Pro + 10 µg/ml Puromycin
[26] = Table 13, day 19 post-transfection, pJF1576 (control, human IgG1 vector), CD-Fusion + 10 µg/ml Puromycin
[27] = day 15 post-transfection, pJF1555, CD Fusion + 10 µg/ml Puromycin
[28] = day 15 post-transfection, pJF1555, CD-Fusion w/o Pro + 10 µg/ml Puromycin
[29] = day 15 post-transfection, pJF1555, CD-Fusion w/o Pro + 0.25 mM Pro + 10 µg/ml Puromycin
[30] = day 20 post-transfection, pJF1556, CD Fusion + 10 µg/ml Puromycin
[31] = day 20 post-transfection, pJF1556, CD-Fusion w/o Pro + 10 µg/ml Puromycin
[32] = day 20 post-transfection, pJF1556, CD-Fusion w/o Pro + 0.25 mM Pro + 10 µg/ml Puromycin
[33] = day 22 post-transfection, pJF2053, CD-Fusion + 10 µg/ml Puromycin
[34] = day 22 post-transfection, pJF2222, CD-Fusion + 10 µg/ml Puromycin
[35] = day 29 post-transfection, pJF2053, CD-Fusion + 10 µg/ml Puromycin

With `O=C(O)[C@@H]1C=CCN1` [DHP, 3,4-Dehydro-L-Proline] the “increase in MFI as compared to Puromycin-selected population” value (0.2 mM DHP in proline-free medium, pJF1555, #4 vs #1 of Table 11) was 37%, the “increase of the frequency of high fluorescing cells” value (0.2 mM DHP in proline-free medium, pJF1555, vs Puromycin-selected population) was 71% and the “improvement of MFI of the stable cell population” value (0.4 mM DHP, pJF1555, Table 13) was 3 fold. For the same compound, the “increase of the frequency of high fluorescing cells” value (0.4 mM DHP, pJF1555, Table 13) was 8.7-12.6 fold, the “Frequency of high fluorescing cells” value [1] was 5.8% and the “Median Fluorescence Intensity (MFI) (yellow)” value (“Median Fluorescence Intensity” for short) [1] was 17880. For the same compound, the “Frequency of high fluorescing cells” value [2] was 1.7%, the “Median Fluorescence Intensity” value [2] was 7599 and the “Frequency of high fluorescing cells” value [3] was 5.6%. For the same compound, the “Median Fluorescence Intensity” value [3] was 14267, the “Frequency of high fluorescing cells” value [4] was 5.8% and the “Median Fluorescence Intensity” value [4] was 13748. The “Frequency of high fluorescing cells” value [5] was 13.0%, the “Median Fluorescence Intensity” value [5] was 19806 and the “sensitivity to DHP treatment of cultures transfected with pJF2055 relative to pJF2303” value (concentration ranges for DHP giving improvement) was “about 10 fold”. For the same compound, the “Frequency of high fluorescing cells” value [6] was 17.3%, the “Median Fluorescence Intensity” value [6] was 24032 and the “Frequency of high fluorescing cells” value [7] was 18.5%. For the same compound, the “Median Fluorescence Intensity” value [7] was 22607, the “Frequency of high fluorescing cells” value [8] was 31.3% and the “Median Fluorescence Intensity” value [8] was 29703. The “Frequency of high fluorescing cells” value [9] was 6.9%, the “Median Fluorescence Intensity” value [9] was 15210 and the “Frequency of high fluorescing cells” value [10] was 8.7%. The “Median Fluorescence Intensity” value [10] was 12393, the “Frequency of high fluorescing cells” value [11] was 9.3% and the “Median Fluorescence Intensity” value [11] was 9617. The “Frequency of high fluorescing cells” value [12] was 3.3%, the “Median Fluorescence Intensity” value [12] was 12080 and the “Frequency of high fluorescing cells” value [13] was 5.7%. The “Median Fluorescence Intensity” value [13] was 15503, the “Frequency of high fluorescing cells” value [14] was 3.2% and the “Median Fluorescence Intensity” value [14] was 12536. For the same compound, the “Frequency of high fluorescing cells” value [15] was 3.7%, the “Median Fluorescence Intensity” value [15] was 14603 and the “Frequency of high fluorescing cells” value [16] was 14.7%. The “Median Fluorescence Intensity” value [16] was 19163, the “Frequency of high fluorescing cells” value [17] was 17.4% and the “Median Fluorescence Intensity” value [17] was 22030. For the same compound, the “Frequency of high fluorescing cells” value [18] was 24.5%, the “Median Fluorescence Intensity” value [18] was 26155 and the “Frequency of high fluorescing cells” value [19] was 19.6%. The “Median Fluorescence Intensity” value [19] was 23616, the “Frequency of high fluorescing cells” value [20] was 15.3% and the “Median Fluorescence Intensity” value [20] was 19951. The “Frequency of high fluorescing cells” value [21] was 43.6%, the “Median Fluorescence Intensity” value [21] was 31838 and the “improvement of MFI as compared to Puromycin selected cultures” value (pJF2055, Table 26) was “up to 2.6 fold”. For the same compound, the “increase of the frequency of high fluorescing cells as compared to Puromycin selected cultures” value (“increase … to Puromycin selected cultures” below) (pJF2055, Table 26) was 7.4-12.7 fold, the “improvement of MFI as compared to Puromycin selected cultures” value (pJF2303, Table 26) was “up to 2.3 fold” and the “increase … to Puromycin selected cultures” value (pJF2303, Table 26) was 5.8-9.9 fold. For the same compound, the “improvement of MFI as compared to Puromycin selected cultures” value (pJF2460, Table 28) was “up to 2.8 fold” and the “increase … to Puromycin selected cultures” value (pJF2460, Table 28) was “up to 19 fold”.
In the case of `COc1ccc(C[C@H](N)C(=O)N[C@H]2[C@@H](O)[C@H](n3cnc4c(N(C)C)ncnc43)O[C@@H]2CO)cc1` [Puromycin], the “Frequency of high fluorescing cells” value (Table 9, day 15 post-transfection, pJF1555, CD-Fusion w/o Pro + 0.25 mM Pro + 10 µg/ml Puromycin) is reported as 4.3%, the “Frequency of high fluorescing cells” value [22] is reported as 3.4% and the “Median Fluorescence Intensity” value [22] is reported as 13092. The “Frequency of high fluorescing cells” value [23] was 3.6%, the “Median Fluorescence Intensity” value [23] was 12860 and the “Frequency of high fluorescing cells” value [24] was 1.0%. For the same compound, the “Median Fluorescence Intensity” value [24] was 6167, the “Frequency of high fluorescing cells” value [25] was 1.5% and the “Median Fluorescence Intensity” value [25] was 6625. For the same compound, the “Frequency of high fluorescing cells” value [26] was 0.1%, the “Median Fluorescence Intensity” value [26] was 9 and the “Frequency of high fluorescing cells” value [27] was 5.1%. The “Median Fluorescence Intensity” value [27] was 5072, the “Frequency of high fluorescing cells” value [28] was 5.1% and the “Median Fluorescence Intensity” value [28] was 5102. For the same compound, the “Frequency of high fluorescing cells” value [29] was 4.6%, the “Median Fluorescence Intensity” value [29] was 4394 and the “Frequency of high fluorescing cells” value [30] was 6.9%. For the same compound, the “Median Fluorescence Intensity” value [30] was 7827, the “Frequency of high fluorescing cells” value [31] was 8.7% and the “Median Fluorescence Intensity” value [31] was 9370. For the same compound, the “Frequency of high fluorescing cells” value [32] was 9.6%, the “Median Fluorescence Intensity” value [32] was 8783 and the “Frequency of high fluorescing cells” value [33] was 2.5%. For the same compound, the “Median Fluorescence Intensity” value [33] was 11308, the “Frequency of high fluorescing cells” value [34] was 4.2% and the “Median Fluorescence Intensity” value [34] was 11476. For the same compound, the “Frequency of high fluorescing cells” value [35] was 2.3% and the “Median Fluorescence Intensity” value [35] was 11502.
